The compounds below were run on HBsAg (assay: HBsAg assay: inhibition of HBsAg in HepG2.2.15 cells (chemiluminescence immunoassay of supernatant)). Conditions: Hepatitis B virus, HepG2.2.15, 144 h, read-out: sAg EC50, HepG2.2.15 cells; HBsAg in supernatant at day 6 after exposure to compound; 0.5% DMSO.
Format: cell-based, hepatitis B virus
In short: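 Secreted HBsAg quantified by CLIA in day-6 supernatants of HepG2.2.15 cultures given compound dilutions at 0.5% final DMSO, with one compound/medium replenishment after 2–3 days. Dose-response fits gave EC50 (50% inhibition); viability checked separately by CellTiter-Glo.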
`COc1cc([C@@H]2C[C@H]2c2cnc(-c3ncccn3)nc2)cc(C(F)(F)F)c1` (relative stereo) [Example 163, trans-5-(2-(3-Methoxy-5-(trifluoromethyl)phenyl)cyclopropyl)-2,2′-bipyrimidine] gave an EC50 of 140 nM. `CC(=O)Nc1cc(C2CC2c2cnc(-c3ncccn3)nc2)ccc1Cl` (single isomer, unassigned) [Example 205, trans-N-(5-(2-([2,2′-Bipyrimidin]-5-yl)cyclopropyl)-2-chlorophenyl)acetamide] showed an EC50 of 510 nM. With `Fc1cc([C@@H]2C[C@H]2c2cnc(-c3ncccn3)nc2)cc(-n2cccn2)c1F` (single isomer, unassigned) [Example 253, trans-5-(2-(3,4-difluoro-5-(1H-pyrazol-1-yl)phenyl)cyclopropyl)-2,2′-bipyrimidine] the EC50 was 29 nM. `COc1cc(C2CC2c2cnc(-c3ncccn3)c3ccccc23)ccc1F` (single isomer, unassigned) [Example 193, trans-4-(2-(4-Fluoro-3-methoxyphenyl)cyclopropyl)-1-(pyrimidin-2-yl)isoquinoline] was tested, and the EC50 was 43000 nM. Work on `Fc1ccc(C2CC2c2cnc(-c3ncccn3)nc2)cc1N1CCCC1` (single isomer, unassigned) [Example 19, trans-5-(2-(4-Fluoro-3-(pyrrolidin-1-yl)phenyl)cyclopropyl)-2,2′-bipyrimidine] yielded an EC50 of 39 nM. Work on `COc1cc(C2CC2c2cnc(-c3ncccn3)nc2)cnc1OC` (single isomer, unassigned) [Example 183, trans-5-(2-(5,6-Dimethoxypyridin-3-yl)cyclopropyl)-2,2′-bipyrimidine] yielded an EC50 of 910 nM.

Same assay, conditions: read-out: sAg EC50; HepG2.2.15 cells; HBsAg in supernatant at day 6 after exposure to compound; 0.5% DMSO
With `Fc1ccc(C2CC2c2cnc(-c3ncccn3)nc2)cc1OCC1CC1` (single isomer, unassigned) [Example 26, trans-5-(2-(3-(Cyclopropylmethoxy)-4-fluorophenyl)cyclopropyl)-2,2′-bipyrimidine] the EC50 was 29 nM. For `COc1cc(C2CC2c2ccc(-c3ncccn3)nc2)cc(F)c1F` (single isomer, unassigned) [Example 125, trans-2-(5-(2-(3,4-Difluoro-5-methoxyphenyl)cyclopropyl)pyridin-2-yl)pyrimidine], the EC50 was 4 nM. `Cc1cn(-c2cc(C3CC3c3cnc(-c4ncccn4)nc3)cc(F)c2F)cn1` (single isomer, unassigned) [Example 261, trans-5-(2-(3,4-Difluoro-5-(4-methyl-1H-imidazol-1-yl)phenyl)cyclopropyl)-2,2′-bipyrimidine] showed an EC50 of 670 nM. `COc1c(Cl)ccc(C2CC2c2cnc(-c3ncccn3)nc2)c1OC` (single isomer, unassigned) [Example 115, trans-5-(2-(4-Chloro-2,3-dimethoxyphenyl)cyclopropyl)-2,2′-bipyrimidine] showed an EC50 of 320 nM. `Oc1cnn(-c2cc(C3CC3c3cnc(-c4ncccn4)nc3)cc(F)c2F)c1` (single isomer, unassigned) [Example 260, trans-1-(5-(2-([2,2′-Bipyrimidin]-5-yl)cyclopropyl)-2,3-difluorophenyl)-1H-pyrazol-4-ol] was tested, and the EC50 was 670 nM. `CC1(C)CCN(c2cc(C3CC3c3cnc(-c4ncccn4)nc3)cc(F)c2F)C1` (single isomer, unassigned) [Example 221, trans-5-(2-(3-(3,3-Dimethylpyrrolidin-1-yl)-4,5-difluorophenyl)cyclopropyl)-2,2′-bipyrimidine] was tested, and the EC50 was 320 nM. Work on `O[C@H]1CCN(c2cc(C3CC3c3cnc(-c4ncccn4)nc3)cc(F)c2F)C1` (single isomer, unassigned) [Example 107] yielded an EC50 of 21 nM. Compound `CCCc1cc(F)c(OC)cc1C1CC1c1cnc(-c2ncccn2)nc1` (single isomer, unassigned) [Example 38, trans-5-(2-(4-Fluoro-5-methoxy-2-propylphenyl)cyclopropyl)-2,2′-bipyrimidine] has an EC50 of 150 nM. Work on `Fc1cc(C2CC2c2cnc(-c3ncccn3)nc2)cc(F)c1F` (single isomer, unassigned) [Example 161, trans-5-(2-(3,4,5-Trifluorophenyl)cyclopropyl)-2,2′-bipyrimidine] yielded an EC50 of 10000 nM. `CO[C@H]1CCN(c2cc(C3CC3c3cnc(-c4ncccn4)nc3)ccc2F)C1` (single isomer, unassigned) [Example 67] showed an EC50 of 180 nM. For `COc1cnn(-c2cc(C3CC3c3cnc(-c4ncccn4)nc3)cc(F)c2F)c1` (single isomer, unassigned) [Example 251, trans-5-(2-(3,4-Difluoro-5-(4-methoxy-1H-pyrazol-1-yl)phenyl)cyclopropyl)-2,2′-bipyrimidine], the EC50 was 41 nM. `CC(=O)N1CC[C@@H](Nc2cc(C3CC3c3cnc(-c4ncccn4)nc3)cc(F)c2F)C1` (single isomer, unassigned) [Example 226] gave an EC50 of 1000 nM. Work on `Fc1cc(C2CC2c2cnc(-c3ncccn3)nc2)cc(F)c1F` (single isomer, unassigned) [Example 162, trans-5-(2-(3,4,5-Trifluorophenyl)cyclopropyl)-2,2′-bipyrimidine] yielded an EC50 of 160 nM. With `CCc1nc(-c2ncccn2)ncc1C1CC1c1ccc(F)c(OC)c1` (single isomer, unassigned) [Example 76, trans-4-Ethyl-5-(2-(4-fluoro-3-methoxyphenyl)cyclopropyl)-2,2′-bipyrimidine] the EC50 was 2000 nM. With `Fc1cc(C2CC2c2cnc(-c3ncccn3)nc2)cc(O[C@@H]2CCOC2)c1F` (single isomer, unassigned) [Example 248] the EC50 was 1000 nM. `Fc1ccc(C2CC2c2cnc(-c3ncccn3)nc2)cc1N1CCC1` (single isomer, unassigned) [Example 83, trans-5-(2-(3-(Azetidin-1-yl)-4-fluorophenyl)cyclopropyl)-2,2′-bipyrimidine] showed an EC50 of 35 nM. `COc1cc(F)ccc1C1CC1c1cnc(-c2ncccn2)nc1` (single isomer, unassigned) [Example 8, trans-5-(2-(4-Fluoro-2-methoxyphenyl)cyclopropyl)-2,2′-bipyrimidine] showed an EC50 of 450 nM. With `COc1cc(C2CC2c2cnc(-c3ncccn3)nc2)cc(OC)c1F` (single isomer, unassigned) [Example 147, trans-5-(2-(4-Fluoro-3,5-dimethoxyphenyl)cyclopropyl)-2,2′-bipyrimidine] the EC50 was 10000 nM. For `COc1cc(C2CC2c2cnc(-c3ncccn3)nc2)c(-c2ccccc2)cc1Cl` (single isomer, unassigned) [Example 158, trans-5-(2-(5-Chloro-4-methoxy-[1,1′-biphenyl]-2-yl)cyclopropyl)-2,2′-bipyrimidine], the EC50 was 3000 nM. For `COc1cc(C2CC2c2cnc(-c3ncccn3)nc2)cc(F)c1Cl` (single isomer, unassigned) [Example 46, trans-5-(2-(4-Chloro-3-fluoro-5-methoxyphenyl)cyclopropyl)-2,2′-bipyrimidine], the EC50 was 35 nM. In the case of `Fc1ccc(C2CC2c2cnc(-c3ncccn3)nc2)cc1N1CCC(F)(F)C1` (single isomer, unassigned) [Example 44, trans-5-(2-(3-(3,3-Difluoropyrrolidin-1-yl)-4-fluorophenyl)cyclopropyl)-2,2′-bipyrimidine], the EC50 is reported as 110 nM. With `Fc1ccc(C2CC2c2cnc(-c3ncccn3)nc2)cc1OC(F)(F)F` (single isomer, unassigned) [Example 39, trans-5-(2-(4-Fluoro-3-(trifluoromethoxy)phenyl)cyclopropyl)-2,2′-bipyrimidine] the EC50 was 2000 nM.
